Tests used:
PC-3 = assay: Anticancer activity against human PC3 cells by SRB assay; assay type: functional; details: for GI50: Homo sapiens, PC-3
MDA-MB-231 = assay: Anticancer activity against human MDA-MB-231 cells by SRB assay; assay type: functional; details: for GI50: Homo sapiens, MDA-MB-231
ACHN = assay: Anticancer activity against human ACHN cells by SRB assay; assay type: functional; details: for GI50: Homo sapiens, ACHN
[1] = Antiproliferative activity against human CCD-33Lu

GI50 (PC-3) [nM]	GI50 (MDA-MB-231) [nM]	GI50 (ACHN) [nM]	SMILES	GI (PC-3) [µM]	GI (MDA-MB-231) [µM]	GI (ACHN) [µM]	Activity [1]
			CC(=O)OC[C@H]1O[C@@H](n2cc(-c3cn(CCC(F)(F)C(F)(F)C(F)(F)C(F)(F)C(F)(F)C(F)(F)F)nn3)c(=O)[nH]c2=O)C[C@@H]1OC(C)=O	89.4	99.4	113.8	
			CC(=O)OC[C@H]1O[C@@H](n2cc(-c3cn(CCC(F)(F)C(F)(F)C(F)(F)C(F)(F)C(F)(F)C(F)(F)C(F)(F)C(F)(F)F)nn3)c(=O)[nH]c2=O)C[C@@H]1OC(C)=O	77.9	99.1	110.8	
			O=c1[nH]c(=O)n([C@H]2C[C@H](O)[C@@H](CO)O2)cc1-c1cn(CCC(F)(F)C(F)(F)C(F)(F)C(F)(F)C(F)(F)C(F)(F)F)nn1	114.5	106.5	99.3	
7750	8670	8240	O=c1[nH]c(=O)n([C@H]2C[C@H](O)[C@@H](CO)O2)cc1-c1cn(CCC(F)(F)C(F)(F)C(F)(F)C(F)(F)C(F)(F)C(F)(F)C(F)(F)C(F)(F)F)nn1	16.7	15.9	14.2	Non-toxic
			O=c1[nH]c(=O)n([C@H]2C[C@H](O)[C@@H](CO)O2)cc1-c1cn(CCC(F)(F)C(F)(F)C(F)(F)C(F)(F)C(F)(F)C(F)(F)C(F)(F)C(F)(F)C(F)(F)C(F)(F)F)nn1	89.4	93.7	90.8	
			O=c1[nH]c(=O)n([C@H]2C[C@H](O)[C@@H](CO)O2)cc1-c1cn(CCC(F)(F)C(F)(F)F)nn1	96.4	98.7	96.1	
			O=c1[nH]c(=O)n([C@H]2C[C@H](O)[C@@H](CO)O2)cc1-c1cn(CCC(F)(F)C(F)(F)C(F)(F)C(F)(F)F)nn1	97.8	109.7	116	
280	180	220	COc1cccc2c1C(=O)c1c(O)c3c(c(O)c1C2=O)C[C@@](O)(C(=O)CO)C[C@@H]3O[C@H]1C[C@H](N)[C@H](O)[C@H](C)O1 [DOXORUBICIN]	28.5	16.5	12.3	
4970	160	2100	O=c1[nH]c(=O)n([C@H]2C[C@H](O)[C@@H](CO)O2)cc1F [FLOXURIDINE]	40.7		25.8	

— ChEMBL document CHEMBL1255529, “Design, synthesis, and anticancer activities of novel perfluoroalkyltriazole-appended 2'-deoxyuridines” (Bioorg Med Chem Lett, 2010)
